The source of these data is patent US4977152A, “Novel tricyclic derivatives which are agonists of cholinergic receptors, and drugs in which they are present” (Societe Anonyme: Sanofi, priority 1986, dated 1990).

For assay [1], the target named is T1, M1-type muscarinic cholinergic receptor (Rattus norvegicus, UniProt P08482).
T1 sequence (P08482 1-460): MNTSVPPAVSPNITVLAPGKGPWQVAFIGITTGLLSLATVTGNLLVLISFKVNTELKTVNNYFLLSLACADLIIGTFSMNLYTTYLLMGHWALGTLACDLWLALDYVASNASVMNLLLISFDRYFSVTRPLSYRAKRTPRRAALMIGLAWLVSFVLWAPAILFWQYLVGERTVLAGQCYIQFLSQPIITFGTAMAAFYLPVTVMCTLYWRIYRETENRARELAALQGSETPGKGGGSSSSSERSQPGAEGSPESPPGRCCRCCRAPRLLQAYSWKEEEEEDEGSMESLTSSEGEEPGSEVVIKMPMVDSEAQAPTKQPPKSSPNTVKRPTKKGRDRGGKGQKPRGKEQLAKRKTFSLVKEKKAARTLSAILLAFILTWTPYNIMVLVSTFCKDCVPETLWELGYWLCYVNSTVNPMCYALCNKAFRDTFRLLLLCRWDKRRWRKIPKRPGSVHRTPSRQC
The assay can be described thus: Test for affinity for the M1-type muscarinic cholinergic receptor: displacement of [3H]pirenzepine on rat hippocampus homogenate. It counts as binding. The note with it: for IC50: rat hippocampus homogenate, 1 nM [3H]PZ, 2 h at 4° C., pH 7.40; for r = (M2 /M1): ratio of IC50 M2 (3H-NMS, guinea-pig ileum) to IC50 M1 (3H-pirenzepine, rat hippocampus). An excerpt: (§1) The M1 -type receptors are concentrated in certain areas of the brain, such as the hippocampus, the cerebral cortex and the striatum, and also in the sympathetic ganglia. These binding sites can be selectively labeled with [^3 H]pirenzepine ([^3 H]PZ). The M2 -type receptors predominate in the heart and ileum and can be labeled with [^3 H]N-methylscopolamine ([^3 H]NMS). To determine the selectivity of our molecules towards the M1 and M2 sites, we studied their interaction in vitro with [^3 H]PZ and [^3 H]NMS bound with a high affinity to membranes of rat hippocampus and membranes of smooth muscle of guinea-pig ileum, respectively.
The interaction of the molecules with M1 -type muscarinic receptors was studied by in vitro measurement, on a homogenate of rat hippocampus, of the displacement of tritiated pirenzepine ([^3 H]PZ) from its specific binding sites. Aliquots (10 μl) of a 5% (w/v) homogenate of rat hippocampus in an Na2 HPO4 buffer (50 mM, pH 7.40) are incubated for 2 h at 4° C. in the presence of [^3 H]pZ ([…]; final concentration: 1 nM) and increasing concentrations of products to be studied. The final volume is 2 ml. The reaction is stopped by centrifugation for 10 min at 50,000 × g. After decantation and washing of the residues, the bound radioactivity is counted by liquid scintillation. The non-specific binding is determined in the presence of 10 μmol/l of atropine sulfate. The 50% inhibitory concentration (IC50) is determined graphically (Ref.: Watson J. D., Roeskoe W. R. and Yamamura H.1., Life Sci., 31, 2019-2029, 1982).
(§2) Table 4 indicates the affinities of the products of the invention for M1 and M2 receptors. The results are expressed as 50% inhibitory concentrations (IC50), i.e. the concentration (in μM) which causes a 50% displacement placement of the tritiated ligand bound to the membrane receptors. The IC50 for displacement of ^3 H-pirenzepine represents the affinity for the M1 receptor; the IC50 for displacement of 3H-NMS represents the affinity for the M2 receptor.
Background: Loss of bound radioactivity is the signal in a displacement assay; it reports binding, not function.

Assay [2] has as its target T2, M2-type muscarinic cholinergic receptor (Cavia porcellus, UniProt H0VRN8).
T2 construct: on a homogenate of smooth muscle of guinea-pig ileum; from tissue; host or cells: guinea-pig ileum smooth muscle homogenate
T2 sequence (H0VRN8 1-466): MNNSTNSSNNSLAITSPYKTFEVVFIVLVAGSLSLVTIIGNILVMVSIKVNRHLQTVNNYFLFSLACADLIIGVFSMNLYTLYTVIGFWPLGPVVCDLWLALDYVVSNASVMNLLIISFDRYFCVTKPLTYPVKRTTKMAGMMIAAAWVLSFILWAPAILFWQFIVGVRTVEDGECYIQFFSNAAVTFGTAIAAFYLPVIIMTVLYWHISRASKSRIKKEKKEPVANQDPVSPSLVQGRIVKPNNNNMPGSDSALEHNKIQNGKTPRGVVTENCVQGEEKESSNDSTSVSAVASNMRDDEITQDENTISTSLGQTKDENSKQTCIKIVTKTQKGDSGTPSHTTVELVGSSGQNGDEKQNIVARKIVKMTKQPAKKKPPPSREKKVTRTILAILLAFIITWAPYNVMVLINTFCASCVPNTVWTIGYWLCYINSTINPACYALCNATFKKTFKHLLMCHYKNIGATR
Kind of assay: Test for affinity for the M2-type muscarinic cholinergic receptor: displacement of [3H]N-methylscopolamine on smooth muscle of guinea-pig ileum. Format: binding. The note with it: guinea-pig ileum smooth muscle homogenate, 0.3 nM [3H]NMS, 20 min at 30° C., pH 7.5.
Description: as §1
The interaction with M2 -type muscarinic receptors was studied by in vitro measurement, on a homogenate of smooth muscle of guinea-pig ileum, of the displacement of tritiated N-methylscopolamine ([^3 H]NMS) from its specific binding sites. Aliquots (50 μl) of a 0.625% (w/v) homogenate of smooth muscle of guinea-pig ileum in MEPES buffer (20 mM) containing NaCl (100 mM) and MgCl2 (10 mM) (final pH: 7.5) are incubated for 20 min at 30° C. in the presence of [^3 H]NMS ([…]; final concentration: 0.3 nM) and increasing concentrations of products to be tested. The final volume is 1 ml. The reaction is stopped by centrifugation for 5 min at 15,000 × g. The non-specific binding is determined in the presence of 10 μmol/l of atropine sulfate (Ref.: Hammer R., Berrie C. P., Birdsall N. I. M., Burgen A. S. V. and Hulme E. C., Nature, 283, 90-92, 1980; Hulme E. C., Birdsall N.1.M., Burgen A. S. V. and Mettha P., Mol. pharmacol., 14, 737-750, 1978).
as §2

For assay [3], the target named is T3, M1 central muscarinic cholinergic receptors (Mus musculus, UniProt P12657).
T3 construct: The intrastriatal injection of PZ into mice induces rotational behavior; from tissue; host or cells: right striatum of living female mice (Swiss, CD 1)
T3 sequence (P12657 1-460): T1 sequence (P08482 1-460) with S309P
Kind of assay: Antagonism of rotational behavior induced by intrastriatal injection of pirenzepine in mice. Format: in vivo, mice (female, Swiss, CD 1). The note with it: ip, read-out: Pirenzepine antagonism ED50. How it is done: Pirenzepine (PZ) is a specific antagonist of M1 central muscarinic cholinergic receptors. The intrastriatal injection of PZ into mice induces rotational behavior. The antagonism of this behavior by the products according to the invention was studied.
The products according to the invention are injected intraperitoneally (i.p.) after solubilization in distilled water or suspension in a 5% solution of gum arabic. The control animals receive an injection of the pure solvent under the same conditions.
The animals used are female mice (Swiss, CD 1, Charles River, France) with a body weight of between 25 and 30 grams.
Pirenzepine is dissolved in a phosphate buffer; the pH of the solution is 6.
The products to be studied or their solvents are injected intraperitoneally, in a volume of 0.4 ml per 20 g of body weight, 15 minutes before a direct injection of pirenzepine at a dose of […] into the right striatum of the mouse, according to the method described by p.
The number of contralateral rotations (rotations in the opposite direction to the side injected) was counted for three 2-minute periods after the injection of pirenzepine: minutes 2 to 4, 8 to 10 and 13 to 15. Each treatment includes 3 to 4 doses and 10 animals per dose. For each treatment, the total number of rotations and the percentage antagonism compared with the control group are calculated.

[4] abbreviates: mice, i.p. 15 minutes before intrastriatal pirenzepine, 50% reduction in number of rotations.

Structures are written as SMILES. Substitutions are numbered along the chain they refer to. Values joined by “and” are separate entries in the source; they are usually repeats but may differ in a detail not shown here. Identical values can stand only once. Counter-ions that a name gives are not always drawn. Like-named read-outs stand apart in the source and are kept apart here.

`CN(C)CCNc1cc2c(nn1)-c1cc([N+](=O)[O-])ccc1CCC2` [SR 44681 A]: in assay [1], the IC50 (in general, the concentration that inhibits the measured activity by half) was determined as 0.26 µM and the “r = (M2 /M1)” value stood at 35. For the same compound, the IC50 in assay [2] is 9 µM. For the same compound, the ED50 (usually the midpoint of the dose-response relation) in assay [3] (setting [4]) is 1 mg/kg.
Regarding `Cl.Cl.c1ccc2c(c1)CCCc1cc(NCCN3CCOCC3)nnc1-2` [SR 95639 A, 3-(2-Morpholinoethylamino)-6,7-dihydro-5H-benzocyclohepta[5,6-c]pyridazine dihydrochloride], the IC50 is 0.4 µM in assay [1] and 55 µM in assay [2]. In assay [1], the “r = (M2 /M1)” value came to 137. The ED50 in assay [3] amounted to 5 mg/kg.
In the case of `CCN(CC)CCNc1cc2c(nn1)-c1ccccc1CCC2` [SR 95640 A], in assay [1], the IC50 was 0.05 µM and the “r = (M2 /M1)” value was 40. Also, the IC50 in assay [2] was 2 µM. For the same compound, the ED50 in assay [3] (setting [4]) amounted to 3 mg/kg.
For `Cl.Cl.c1ccc2c(c1)ccc1cc(NCCN3CCOCC3)nnc12` [SR 95679 A, 3-(2-Morpholinoethylamino)benzo[h]cinnoline dihydrochloride], the IC50 in assay [1] is 3.1 µM; in assay [2], 100 µM and > 100 µM. Also, the “r = (M2 /M1)” value in assay [1] (dihydrochloride) is 32 and > 32. In assay [3], the ED50 stood at 10 mg/kg.
As for `Cl.Cl.c1ccc2c(c1)CCc1cc(NCCN3CCOCC3)nnc1-2` [SR 95695 A, 3-(2-Morpholinoethylamino)-5,6-dihydrobenzo[h]cinnoline dihydrochloride], the IC50 was 2.6 µM in assay [1]; 100 µM and > 100 µM in assay [2]. The “r = (M2 /M1)” value in assay [1] (dihydrochloride) was 38 and > 38. The ED50 in assay [3] worked out at 5 mg/kg.
In the case of `CCN(CC)CCSc1cc2c(nn1)-c1ccccc1CC2.Cl` [SR 95743 A, 3-(2-Diethylaminoethylthio)-5,6-dihydrobenzo[h]cinnoline hydrochloride], in assay [1], the IC50 turned out to be 0.7 µM and the “r = (M2 /M1)” value is reported as 14. The compound also displayed an IC50 in assay [2] of 10 µM. In addition, the ED50 in assay [3] stood at 8 mg/kg.
In the same order, the values of `CN(C)CCOc1cc2c(nn1)-c1ccccc1CC2.Cl` [SR 95745 A, 3-(2-Dimethylaminoethoxy)-5,6-dihydrobenzo[h]cinnoline hydrochloride] are 3.9 µM, 21, 80 µM and 8 mg/kg.
On to `CCN(CC)CCCNc1cc2c(nn1)-c1ccccc1CC2.Cl.Cl` [SR 95746 A, 3-(3-Diethylaminopropylamino)-5,6-dihydrobenzo[h]-cinnoline dihydrochloride], for which the IC50 in assay [1] is 1.5 µM; in assay [2] it was 25 µM. Also, the “r = (M2 /M1)” value in assay [1] came out at 17. Moreover, the 50% effective dose (ED50) in assay [3] is 10 to 30 mg/kg.
In the same order, the values of `CCN(CC)CCNc1cc2c(nn1)-c1cc([N+](=O)[O-])ccc1CCC2.Cl.Cl` [SR 95777 A, 3-(2-Diethylaminoethylamino)-10-nitro-6,7-dihydro-5H-benzocyclohepta[5,6-c]pyridazine dihydrochloride] are 0.1 µM, 5.6 µM, 56 and 0.5 mg/kg.
For `CCN(CC)CCCNc1cc2c(nn1)-c1ccccc1CCC2` [SR 95818 A], in assay [1], the IC50 amounted to 0.24 µM and the “r = (M2 /M1)” value was found to be 50. In assay [2], this compound gave an IC50 of 12 µM. Besides, the ED50 in assay [3] (setting [4]) stood at 7 mg/kg.
In the same order, the values of `CCN(CC)CCSc1cc2c(nn1)-c1ccccc1CCC2` [SR 95820 A, 3-(2-Diethylaminoethylthio)-6,7-dihydro-5H-benzocyclohepta[ [drawing 52] 5,6-c]pyridazine hydrochloride] are 0.07 µM, 29, 2 µM and 8 mg/kg.
Take `CN(C)CCOc1cc2c(nn1)-c1ccccc1CCC2.Cl` [SR 95822 A, 3-(2-Dimethylaminoethoxy)-6,7-dihydro-5H-benzocyclohepta[5,6-c]pyridazine hydrochloride]: in assay [1], the IC50 amounted to 1 µM and the “r = (M2 /M1)” value is 9.5. Further, the IC50 in assay [2] was 9.5 µM. Besides, the ED50 in assay [3] turned out to be 3 mg/kg.
Turning to `CN(C)CCNc1cc2c(nn1)-c1ccccc1CCC2` [SR 95824 A], the figures for the IC50 in assay [1] and in assay [2] were 0.2 µM and 25 µM, respectively. For the same compound, the “r = (M2 /M1)” value in assay [1] was found to be 125. Moreover, the ED50 in assay [3] (setting [4]) stood at 3 mg/kg.
